In publication PMC10526194 (2023):

Key:
[1] = test system: 40-mer aptamer (DNA, aptamer) ACGTTGACGCTGGTGCCCGGTTGTGGTGCGAGTGTTGTGT; assay: CD thermal denaturation (250 nm free, 270 nm bound); settings: 100 mM Na+, 5 mM K+, 2 mM Mg2+, 1 mM Ca2+; 20 mM Tris pH 7.1; 40 µM OTC, 5 µM aptamer; derived from two Tm (41 to 80 °C)
[2] = test system: 71-mer aptamer (DNA, aptamer) GGAATTCGCTAGCACGTTGACGCTGGTGCCCGGTTGTGGTGCGAGTGTTGTGTGGATCCGAGCTCCACGTG; assay: CD titration; settings: 100 mM Na+, 5 mM K+, 2 mM Mg2+, 1 mM Ca2+; 20 mM Tris pH 7.6, 25 °C; 5 µM aptamer, 2.5-40 µM OTC
[3] = test system: 40-mer aptamer (DNA, aptamer) ACGTTGACGCTGGTGCCCGGTTGTGGTGCGAGTGTTGTGT; assay: CD titration; settings: 100 mM Na+, 5 mM K+, 2 mM Mg2+, 1 mM Ca2+; 20 mM Tris pH 7.6, 25 °C; 5 µM aptamer, 2.5-40 µM OTC
[4] = test system: thiol-modified 40-mer aptamer (DNA, aptamer) ACGTTGACGCTGGTGCCCGGTTGTGGTGCGAGTGTTGTGT; assay: QCM with dissipation (frequency decrease); settings: 100 mM Na+, 5 mM K+, 2 mM Mg2+, 1 mM Ca2+; pH 7.1 and 9.1, 25 °C; 20 and 40 µM OTC

Tm shift (ΔTm) [1]: 39 °C
binding [2]: yes
binding [3]: yes
binding [4]: yes
Compound: CN(C)[C@@H]1C(=O)C(C(N)=O)=C(O)[C@@]2(O)C(=O)C3=C(O)c4c(O)cccc4[C@@](C)(O)[C@H]3[C@H](O)[C@@H]12
